Values of other authors in patent US6080760A, “Alpha 1A adrenergic receptor antagonists” (Merck & Co., Inc., priority 1998, dated 2000).

Tests used:
[1] = system: adrenergic receptors of the alpha1 subtype; conditions: reported in WO 92/0073
[2] = system: prostatic hyperplasia; conditions: reported in EP 0 204597

selective binding to adrenergic receptors of the alpha1 subtype [1] | Structure (SMILES) | urination in cases of prostatic hyperplasia [2]
selective ability | COc1cc2nc(N3CCN(C(=O)[C@H]4CCCO4)CC3)nc(N)c2cc1OC [R(+) enantiomer of terazosin] | 
 | COc1cc2nc(N(C)CCCNC(=O)C3CCCO3)nc(N)c2cc1OC (centres unmarked) [alfuzosin] | induce urination
